Experimental data from patent publication US20230416275A1, “MODULATORS OF CYSTIC FIBROSIS TRANSMEMBRANE CONDUCTANCE REGULATOR” (VERTEX PHARMACEUTICALS INCORPORATED, priority 2020, published 2023).

Experiments:
F508del in NIH 3T3 cells = biological target: T1, F508del in NIH 3T3 cells (Homo sapiens, UniProt P13569, DEL508-508); assay: 3T3 assay: membrane potential optical assay for F508del correction; format: cell-based, mouse; conditions: for EC50 / 3T3 Max Activity (%): F508del NIH 3T3 cells; for EC50: compound incubation 18-24 hours at 37° C., forskolin activation, read-out: 3T3 EC50; for Emax: NIH3T3, F508del NIH 3T3 cells, read-out: 3T3 Max Activity (%); for Emax / 3T3 Max Activity (%): efficacy compared to lumacaftor in combination with acutely added 300 nM Ivacaftor
T1 construct: expressed in transfected cells
T1 sequence (P13569 with tags, fused parts or gaps DEL508-508): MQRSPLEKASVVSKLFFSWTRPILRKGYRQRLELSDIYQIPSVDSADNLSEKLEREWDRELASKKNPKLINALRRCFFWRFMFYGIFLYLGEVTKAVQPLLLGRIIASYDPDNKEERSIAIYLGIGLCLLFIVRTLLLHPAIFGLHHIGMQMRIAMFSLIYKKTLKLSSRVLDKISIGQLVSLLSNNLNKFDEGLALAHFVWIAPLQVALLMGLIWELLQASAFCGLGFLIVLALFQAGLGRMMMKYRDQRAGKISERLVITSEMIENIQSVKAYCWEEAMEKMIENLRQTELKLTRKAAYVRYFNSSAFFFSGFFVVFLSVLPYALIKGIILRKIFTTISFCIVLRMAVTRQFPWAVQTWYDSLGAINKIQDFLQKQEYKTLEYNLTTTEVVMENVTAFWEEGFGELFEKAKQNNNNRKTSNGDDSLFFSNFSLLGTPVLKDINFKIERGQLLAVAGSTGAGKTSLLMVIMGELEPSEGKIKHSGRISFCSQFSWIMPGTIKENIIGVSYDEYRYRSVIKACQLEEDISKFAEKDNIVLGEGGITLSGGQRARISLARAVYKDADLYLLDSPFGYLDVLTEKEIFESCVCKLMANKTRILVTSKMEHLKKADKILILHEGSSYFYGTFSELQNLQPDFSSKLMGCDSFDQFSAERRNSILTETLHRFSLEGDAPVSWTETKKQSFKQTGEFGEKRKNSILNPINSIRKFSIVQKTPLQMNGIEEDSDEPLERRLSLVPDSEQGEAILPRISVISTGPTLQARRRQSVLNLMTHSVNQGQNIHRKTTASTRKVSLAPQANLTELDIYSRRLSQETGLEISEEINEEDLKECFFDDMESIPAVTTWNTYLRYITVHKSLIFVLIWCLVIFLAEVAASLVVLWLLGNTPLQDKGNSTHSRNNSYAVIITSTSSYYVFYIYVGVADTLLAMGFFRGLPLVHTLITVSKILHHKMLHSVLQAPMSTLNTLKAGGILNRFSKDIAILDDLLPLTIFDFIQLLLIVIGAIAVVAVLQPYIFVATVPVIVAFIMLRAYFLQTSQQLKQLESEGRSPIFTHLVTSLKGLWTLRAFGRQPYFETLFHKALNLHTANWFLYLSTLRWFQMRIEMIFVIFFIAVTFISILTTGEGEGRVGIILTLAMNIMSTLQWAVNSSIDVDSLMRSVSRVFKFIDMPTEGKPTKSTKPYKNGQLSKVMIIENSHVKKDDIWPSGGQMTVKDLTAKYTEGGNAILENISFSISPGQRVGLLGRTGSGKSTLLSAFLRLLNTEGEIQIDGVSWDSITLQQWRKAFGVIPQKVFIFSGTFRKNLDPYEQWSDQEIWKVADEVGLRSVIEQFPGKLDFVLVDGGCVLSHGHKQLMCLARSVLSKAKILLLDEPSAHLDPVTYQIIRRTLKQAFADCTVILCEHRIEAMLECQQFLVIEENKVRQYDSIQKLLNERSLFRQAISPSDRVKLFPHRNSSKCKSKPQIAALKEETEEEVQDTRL
Excerpt: a. Membrane Potential Optical Methods for Assaying F508del Modulation Properties of Compounds
The assay utilizes fluorescent voltage sensing dyes to measure changes in membrane potential using a fluorescent plate reader (e.g., FLIPR III, Molecular Devices, Inc.) as a readout for increase in functional F508del in NIH 3T3 cells. The driving force for the response is the creation of a chloride ion gradient in conjunction with channel activation by a single liquid addition step after the cells have previously been treated with compounds and subsequently loaded with a voltage sensing dye.
b. Identification of Corrector Compounds
To identify correctors of F508del, a single-addition HTS assay format was developed. This HTS assay utilizes fluorescent voltage sensing dyes to measure changes in membrane potential on the FLIPR III as a measurement for increase in gating (conductance) of F508del in F508del NIH 3T3 cells. The F508del NIH 3T3 cell cultures were incubated with the corrector compounds at a range of concentrations for 18-24 hours at 37° C., and subsequently loaded with a redistribution dye. The driving force for the response is a Cl^− ion gradient in conjunction with channel activation with forskolin in a single liquid addition step using a fluorescent plate reader such as FLIPR III.
Bath Solution #1: (in mM) NaCl 160, KCl 4.5, CaCl2 2, MgCl2 1, HEPES 10, pH 7.4 with NaOH.
Chloride-free bath solution: Chloride salts in Bath Solution #1 (above) are substituted with gluconate salts.
NIH3T3 mouse fibroblasts stably expressing F508del are used for optical measurements of membrane potential. The cells are maintained at 37° C. in 5% CO2 and 90% humidity in Dulbecco's modified Eagle's medium supplemented with 2 mM glutamine, 10% fetal bovine serum, 1×NEAA, b-ME, 1× pen/strep, and 25 mM HEPES in 175 cm^2 culture flasks. For all optical assays, the cells were seeded at ˜20,000/well in 384-well Matrigel-coated plates. For the correction assays, the cells are cultured at 37° C. with and without compounds for 16-24 hours.

[1] = biological target: CFTR-mediated chloride transport in human intestinal epithelial enteroid cells (Homo sapiens, UniProt P13569); assay: Membrane potential dye, Enteroid Assay A; format: cell-based; conditions: for Ent. A Max Activity (%): % of chloride transport of triple combination control (3 μM N-[(6-amino-2-pyridyl)sulfonyl]-6-(3-fluoro-5-isobutoxy-phenyl)-2-[(4S)-2,2,4-trimethylpyrrolidin-1-yl]pyridine-3-carboxamide, 3 μM tezacaftor, 300 nM acute ivacaftor); for EC50: enteroid cells, 18-24 hours incubation, acute 10 μM forskolin and 300 nM ivacaftor, read-out: Ent. A EC50
Chain of CFTR-mediated chloride transport in human intestinal epithelial enteroid cells (P13569 with tags, fused parts or gaps DEL508-508): as above
Method: Base medium (ADF+++) consisted of Advanced DMEM/Ham's F12, 2 mM Glutamax, 10 mM HEPES, […] penicillin/streptomycin.
Intestinal enteroid maintenance medium (IEMM) consisted of ADF+++, 1×B27 supplement, 1×N2 supplement, 1.25 mM N-acetyl cysteine, 10 mM Nicotinamide, 50 ng/mL hEGF, 10 nM Gastrin, 1 μg/mL hR-spondin-1, 100 ng/mL hNoggin, TGF-b type 1 inhibitor A-83-01, 100 μg/mL Primocin, 10 μM P38 MAPK inhibitor SB202190.
Bath 1 Buffer consisted of 1 mM MgCl2, 160 mM NaCl, 4.5 mM KCl, 10 mM HEPES, 10 mM Glucose, 2 mM CaCl2.
Chloride Free Buffer consisted of 1 mM Magnesium Gluconate, 2 mM Calcium Gluconate, 4.5 mM Potassium Gluconate, 160 mM Sodium Gluconate, 10 mM HEPES, 10 mM Glucose.
Bath1 Dye Solution consisted of Bath 1 Buffer, 0.04% Pluronic F127, 20 μM Methyl Oxonol, 30 μM CaCCinh-A01, 30 μM Chicago Sky Blue.
Chloride Free Dye Solution consisted of Chloride Free Buffer, 0.04% Pluronic F127, 20 μM Methyl Oxonol, 30 μM CaCCinh-A01, 30 μM Chicago Sky Blue.
Chloride Free Dye Stimulation Solution consisted of Chloride Free Dye Solution, 10 μM forskolin, 100 μM IBMX, and 300 nM Compound III.
Human intestinal epithelial enteroid cells were obtained from the Hubrecht Institute for Developmental Biology and Stem Cell Research, Utrecht, The Netherlands and expanded in T-Flasks as previously described (Dekkers J F, Wiegerinck C L, de Jonge H R, Bronsveld I, Janssens H M, de Winter-de Groot K M, Brandsma A M, de Jong N W M, Bijvelds M J C, Scholte B J, Nieuwenhuis E E S, van den Brink S, Clevers H, van der Ent C K, Middendorp S and M Beekman J M. A functional CFTR assay using primary cystic fibrosis intestinal organoids. Nat Med. 2013 July; 19(7):939-45).
c. Enteroid Cell Harvesting and Seeding
Cells were recovered in cell recovery solution, collected by centrifugation at 650 rpm for 5 minutes at 4° C., resuspended in TrypLE and incubated for 5 minutes at 37° C. Cells were then collected by centrifugation at 650 rpm for 5 minutes at 4° C. and resuspended in IEMM containing 10 μM ROCK inhibitor (RI). The cell suspension was passed through a 40 μm cell strainer and resuspended at 1×10^6 cells/mL in IEMM containing 10 μM RI. Cells were seeded at 5000 cells/well into multi-well plates and incubated for overnight at 37° C., 95% humidity and 5% CO2 prior to assay.
d. Membrane Potential Dye, Enteroid Assay A
Enteroid cells were incubated with test compound in IEMM for 18-24 hours at 37° C., 95% humidity and 5% CO2. […] Briefly, cells were washed 5 times in Bath 1 Buffer. Bath 1 Dye Solution was added, and the cells were incubated for 25 minutes at room temperature. Following dye incubation, cells were washed 3 times in Chloride Free Dye Solution. Chloride transport was initiated by addition of Chloride Free Dye Stimulation Solution and the fluorescence signal was read for 15 minutes. […] Chloride transport was then expressed as a percentage of the chloride transport following treatment with 3 μM N-[(6-amino-2-pyridyl)sulfonyl]-6-(3-fluoro-5-isobutoxy-phenyl)-2-[(4S)-2,2,4-trimethylpyrrolidin-1-yl]pyridine-3-carboxamide, 3 μM (R)-1-(2,2-difluorobenzo[d][1,3]dioxol-5-yl)-N-(1-(2,3-dihydroxypropyl)-6-fluoro-2-(1-hydroxy-2-methylpropan-2-yl)-1H-indol-5-yl)cyclopropanecarboxamide and 300 nM acute N-[2,4-bis(1,1-dimethylethyl)-5-hydroxyphenyl]-1,4-dihydro-4-oxoquinoline-3-carboxamide triple combination control (% Activity).

| Compound | EC50 (F508del in NIH 3T3 cells) [µM] | Emax (F508del in NIH 3T3 cells) [%] | EC50 [1] [µM] | 3T3 Max Activity (%) (F508del in NIH 3T3 cells) | Ent. A Max Activity (%) [1] |
| --- | --- | --- | --- | --- | --- |
| Cc1cccc(C)c1-c1cc2nc(n1)NS(=O)(=O)c1cccc(c1)NC(=O)[C@H]1CCC[C@H](C1)O2 (single isomer, unassigned) [Compound 68, 5-(2,6-dimethylphenyl)-9,9-dioxo-2-oxa-9λ^6-thia-6,8,15,23-tetraazatetracyclo[15.3.1.13,7.110,14]tricosa-3,5,7(23),10(22),11,13-hexaen-16-one] | < 1 | > 60 | 3 to 30 | – | ++ (++ is 30-60%) |
| Cc1cccc(C)c1-c1cc2nc(n1)NS(=O)(=O)c1cccc(c1)NC(=O)[C@H]1CCC[C@H](C1)O2 (single isomer, unassigned) [Compound 69, 5-(2,6-dimethylphenyl)-9,9-dioxo-2-oxa-9λ^6-thia-6,8,15,23-tetraazatetracyclo[15.3.1.13,7.110,14]tricosa-3,5,7(23),10(22),11,13-hexaen-16-one] | < 1 | – | 1 to 3 | +++ (+++ is >60%) | ++ (++ is 30-60%) |
| Cc1cccc(C)c1-c1cc2nc(n1)NS(=O)(=O)c1cccc(c1)NC(=O)[C@H]1CCC[C@H](C1)O2 (single isomer, unassigned) [Compound 70, 5-(2,6-Dimethylphenyl)-9,9-dioxo-2-oxa-9λ^6-thia-6,8,15,23-tetraazatetracyclo[15.3.1.13,7.110,14]tricosa-3,5,7(23),10(22),11,13-hexaen-16-one] | 1 to 3 | – | 1 to 3 | +++ (+++ is >60%) | ++ (++ is 30-60%) |
| Cc1cccc(C)c1-c1cc2nc(n1)NS(=O)(=O)c1cccc(c1)NC(=O)[C@H]1CCC[C@H](C1)O2 (single isomer, unassigned) [Compound 71, 5-(2,6-dimethylphenyl)-9,9-dioxo-2-oxa-9λ^6-thia-6,8,15,23-tetraazatetracyclo[15.3.1.13,7.110,14]tricosa-3,5,7(23),10(22),11,13-hexaen-16-one] | 1 to 3 | – | 1 to 3 | +++ (+++ is >60%) | +++ (+++ is >60%) |
| Cc1cccc(C)c1-c1cc2nc(n1)NS(=O)(=O)c1cccc(c1)NC(=O)[C@@H]1C[C@@H](CN1C(=O)OC(C)(C)C)O2 [Compound 80] | – | – | – | – | + (+ is <30%) |
| Cc1cccc(C)c1-c1cc2nc(n1)NS(=O)(=O)c1cccc(c1)NC(=O)[C@@H]1C[C@H](O2)C(=O)N(CCC(C)(C)C)C1 [Compound 88] | – | – | 3 to 30 | – | ++ (++ is 30-60%) |
| Cc1cccc(C)c1-c1cc2nc(n1)NS(=O)(=O)c1cccc(c1)NC(=O)[C@@H]1C[C@H](O2)C(=O)N(CCC(C)(C)C)C1 [Compound 89] | – | – | – | – | + (+ is <30%) |
| Cc1cccc(C)c1-c1cc2nc(n1)NS(=O)(=O)c1cccc(c1)NC(=O)[C@@H]1C[C@H](O2)C(=O)N(CCC(C)(C)C)C1 [Compound 90] | – | – | 3 to 30 | – | ++ (++ is 30-60%) |
| Cc1cccc(C)c1-c1cc2nc(n1)NS(=O)(=O)c1cccc(c1)NC(=O)[C@@H]1C[C@H](O2)C(=O)N(CCC(C)(C)C)C1 [Compound 91] | – | – | 3 to 30 | – | + (+ is <30%) |
| Cc1cccc(C)c1-c1cc2nc(n1)NS(=O)(=O)c1cccc(c1)NC(=O)C1CC(O2)C(=O)N(CCC(C)(C)C)C1 (stereo not drawn) [Compound 92] | – | – | – | – | + (+ is <30%) |
| Cc1cccc(C)c1-c1cc2nc(n1)NS(=O)(=O)c1cccc(c1)NC(=O)C1CC(O2)C(=O)N(CCC(C)(C)C)C1 (stereo not drawn) [Compound 93] | – | – | – | – | ++ (++ is 30-60%) |

Continued, in another order:

| EC50 (F508del in NIH 3T3 cells) [µM] | Emax (F508del in NIH 3T3 cells) [%] | EC50 [1] [µM] | 3T3 Max Activity (%) (F508del in NIH 3T3 cells) | Compound | Ent. A Max Activity (%) [1] |
| --- | --- | --- | --- | --- | --- |
| < 1 | 30 to 60 | – | – | Cc1cccc(C)c1-c1cc2nc(n1)NS(=O)(=O)c1cccc(c1)NC(=O)[C@H]1C[C@H](CN(C(=O)OC(C)(C)C)C1)O2 (single isomer, unassigned) [Compound 1] | + (+ is <30%) |
| < 1 | > 60 | < 1 | – | Cc1cccc(C)c1-c1cc2nc(n1)NS(=O)(=O)c1cccc(c1)NC(=O)[C@@H]1C[C@@H](CN(C(=O)OC(C)(C)C)C1)O2 (single isomer, unassigned) [Compound 2] | +++ (+++ is >60%) |
| 1 to 3 | > 60 | 1 to 3 | – | Cc1cccc(C)c1-c1cc2nc(n1)NS(=O)(=O)c1cccc(c1)NC(=O)[C@@H]1C[C@H](CN(C(=O)OC(C)(C)C)C1)O2 (single isomer, unassigned) [Compound 3] | + (+ is <30%) |
| < 1 | > 60 | < 1 | – | Cc1cccc(C)c1-c1cc2nc(n1)NS(=O)(=O)c1cccc(c1)NC(=O)[C@@H]1C[C@@H](CN(CCC(C)(C)C)C1)O2 [Compound 5, (3S,7R)-5-(3,3-Dimethylbutyl)-19-(2,6-dimethylphenyl)-2-oxa-15λ^6-thia-5,9,16,18,21-pentaazatetracyclo[15.3.1.13,7.110,14]tricosa-1(20),10,12,14(22),17(21),18-hexaene-8,15,15-trione] | +++ (+++ is >60%) |
| < 1 | > 60 | 1 to 3 | – | COCCN1C[C@@H]2C[C@H](C1)C(=O)Nc1cccc(c1)S(=O)(=O)Nc1nc(cc(-c3c(C)cccc3C)n1)O2 [Compound 7, (3S,7R)-19-(2,6-Dimethylphenyl)-5-(2-methoxyethyl)-2-oxa-15λ^6-thia-5,9,16,18,21-pentaazatetracyclo[15.3.1.13,7.110,14]tricosa-1(21),10(22),11,13,17,19-hexaene-8,15,15-trione] | +++ (+++ is >60%) |
